Experimental data published in patent US10981860B2, “Caspase inhibitor and pharmaceutical composition, use and therapeutic method thereof” (Chia Tai Tianqing Pharmaceutical Group Co., Ltd., priority 2016, dated 2021).
Read-outs that look alike come from different tables or passages of the source.

Assays:
[1] = Mouse pharmacokinetic study (intravenous and oral); format: in vivo; conditions: for half-life (in words) / in vivo exposure (in words): Examples compared to reference compound IDN-6556
Source text: Experimental Example 2: Mouse Pharmacokinetic Study
The mice were randomly divided into two groups (one intravenous group and one oral group) or only oral group, 3 males in each group. The compounds were formulated into the designated preparations. The intravenous preparations should be filtered to provide clear solutions, and the oral preparations can be clear or can be uniform suspensions. All animals in the intravenous group were intravenously injected with the given doses of the compound preparations through tail veins. The oral group was administrated with the given doses of the preparations by gavage.
Whole blood samples were collected from the other side of the tail vein at 8 time points (2 min, 5 min, 15 min, 30 min, 1 h, 2 h, 4 h and 8 h after administration) in the intravenous group, about 25 μL for each sample; whole blood samples were collected from the tail vein at 8 time points (2 min, 5 min, 15 min, 30 min, 1 h, 2 h, 4 h and 8 h after administration) in the oral group, about 25 μL for each sample.
[…] were added to a centrifuge tube containing anticoagulants, and centrifuged at 4° C., 3000 g for 15 min. The supernatant plasma was quickly frozen on dry ice and stored in a ⋅ refrigerator at −70° C.±10° C. until LC-MS/MS analysis was performed.
The concentration data of plasma drug for the compounds were processed with the non-compartmental model using WinNonlin™ Version 6.3.0 (Pharsight, Mountain View, Calif.) pharmacokinetic software. The peak concentration (Cmax), time to peak concentration (Tmax) and last time for quantitative were obtained directly from the blood concentration-time chart.
The following pharmacokinetic parameters were calculated by using Log-linear Trapezoidal method: elimination phase half-life (T1/2); apparent volume of distribution (Vdss) and clearance rate (CL); the average residence time of the drug in vivo from 0 to the last time point (MRT0-last); the average residence time of the drug in vivo from zero time to infinity (MRT0-inf); the area under time-plasma concentration curve from 0 to the last time point (AUC0-last); the area under time-plasma concentration curve from zero time to infinity (AUC0-inf); initial concentration (C0).
For individual plasma concentrations of less than BQL, the concentrations appeared before Tmax were calculated as 0, and the concentrations appeared after Tmax were directly excluded. All parameters and ratios were reported in the forms of three significant digits.
The pharmacokinetic parameters of this experiment were calculated according to the theoretical blood collection times and the theoretical dose concentrations as described in the protocol. The deviations between the actual dose concentrations and the theoretical concentrations were within the range of ±20%. The deviations between the actual blood collection times and the theoretical blood collection times were in conformity with the relevant SOP (the point within 1 hour after administration was within the range of ±1 min, and the others were within 5% of the theoretical time).

[2] = tested on: Anti-Fas-induced Jurkat cells; assay: Anti-Fas-induced apoptosis of Jurkat cells in vitro (Caspase 3 substrate Ac-DEVD-AMC fluorescence); format: cell-based; conditions: Homo sapiens; Jurkat Clone E6-1, Anti-Fas 50 ng/mL, 24 hours, Ac-DEVD-AMC 10 μM

SMILES	EC50 [2]	also measured
CC(C)(C)c1ccccc1NC(=O)C(=O)N1CCC(C(=O)N[C@@H](CC(=O)O)C(=O)COc2c(F)c(F)cc(F)c2F)CC1 [Example 7]		half-life (in words) [1]: significantly improved; in vivo exposure (in words) [1]: significantly improved; oral bioavailability (in words) ([1]; compared to reference compound IDN-6556): significantly improved; Area under the concentration-time curve ([1]; oral administration 10 mpk): 3.657 µM·h; Peak concentration ([1]; oral administration 10 mpk): 1636 nM; Time to peak concentration ([1]; oral administration 10 mpk): 0.833 h
O=C(O)C[C@H](NC(=O)C1CCN(C(=O)C2CCCC2)CC1)C(=O)COc1c(F)c(F)cc(F)c1F [Example 49]		in vivo exposure (in words) [1]: significantly improved; Apparent volume of distribution ([1]; intravenous injection 1 mpk): 0.653 L/kg; Area under the concentration-time curve ([1]; intravenous injection 1 mpk): 0.852 µM·h; Clearance rate ([1]; intravenous injection 1 mpk): 38.6 mL/min/kg; Half-life ([1]; intravenous injection 1 mpk): 52.2 min; Area under the concentration-time curve ([1]; oral administration 10 mpk): 1.708 µM·h; Bioavailability ([1]; oral administration 10 mpk): 20.1%; Peak concentration ([1]; oral administration 10 mpk): 405 nM; Time to peak concentration ([1]; oral administration 10 mpk): 1 h
O=C(O)C[C@H](NC(=O)C1CCN(C(=O)OC2CCCC2)CC1)C(=O)COc1c(F)c(F)cc(F)c1F [Example 69]		in vivo exposure (in words) [1]: significantly improved; Area under the concentration-time curve ([1]; oral administration 10 mpk): 4.18 µM·h; Peak concentration ([1]; oral administration 10 mpk): 1993 nM; Time to peak concentration ([1]; oral administration 10 mpk): 0.5 h
Cc1ccc(Cl)c(OC(=O)N2CCC(C(=O)N[C@@H](CC(=O)O)C(=O)COc3c(F)c(F)cc(F)c3F)CC2)c1 [Example 72]	17.9 nM	
CC(C)[C@H]1CC[C@H](C)C[C@@H]1OC(=O)N1CCC(C(=O)N[C@@H](CC(=O)O)C(=O)COc2c(F)c(F)cc(F)c2F)CC1 [Example 77]	96 nM	
O=C(O)C[C@H](NC(=O)C1CCN(C(=O)NCc2ccccc2)CC1)C(=O)COc1c(F)c(F)cc(F)c1F [Example 78]	35.9 nM	
O=C(O)C[C@H](NC(=O)C1CCN(C(=O)NC2CCCC2)CC1)C(=O)COc1c(F)c(F)cc(F)c1F [Example 79]	26 nM	
O=C(O)C[C@H](NC(=O)C1CCN(C(=O)Nc2ccccc2)CC1)C(=O)COc1c(F)c(F)cc(F)c1F [Example 80]	17.5 nM	
O=C(O)C[C@H](NC(=O)C1CCN(S(=O)(=O)c2ccccc2)CC1)C(=O)COc1c(F)c(F)cc(F)c1F [Example 81]	959 nM	
O=C(O)C[C@H](NC(=O)C1CCN(c2ncc3cc(F)ccc3n2)CC1)C(=O)COc1c(F)c(F)cc(F)c1F [Example 82]	44 nM	
O=C(O)C[C@H](NC(=O)C1CCN(c2nc3ccccc3o2)CC1)C(=O)COc1c(F)c(F)cc(F)c1F [Example 83]	24 nM	
O=C(O)C[C@H](NC(=O)C1CCN(c2noc3ccccc23)CC1)C(=O)COc1c(F)c(F)cc(F)c1F [Example 84]	35 nM	
O=C(O)C[C@H](NC(=O)C1CCN(C(=O)c2ccno2)CC1)C(=O)COc1c(F)c(F)cc(F)c1F [Example 85]	16.3 nM	
O=C(O)C[C@H](NC(=O)C1CCN(C(=O)C(=O)Nc2cc(Cl)ccc2C(F)(F)F)CC1)C(=O)COc1c(F)c(F)cc(F)c1F [Example 88]	33.8 nM	
O=C(O)C[C@H](NC(=O)C1CCN(C(=O)N2CCCC2)CC1)C(=O)COc1c(F)c(F)cc(F)c1F [Example 89]	8.98 nM	
O=C(O)C[C@H](NC(=O)C1CCN(C(=O)C(=O)N2CCCC2)CC1)C(=O)COc1c(F)c(F)cc(F)c1F [Example 90]	44.2 nM	
O=C(O)C[C@H](NC(=O)C1CCN(C(=O)OCc2ccc(Cl)cc2Cl)CC1)C(=O)COc1c(F)c(F)cc(F)c1F [Example 91]	62 nM	
Cc1ccc(C)c(CCNC(=O)C(=O)N2CCC(C(=O)N[C@@H](CC(=O)O)C(=O)COc3c(F)c(F)cc(F)c3F)CC2)c1 [Example 94]	43.9 nM	
Cc1ccc(C)c(CNC(=O)C(=O)N2CCC(C(=O)N[C@@H](CC(=O)O)C(=O)COc3c(F)c(F)cc(F)c3F)CC2)c1 [Example 95]	33.2 nM	
O=C(O)C[C@H](NC(=O)C1CCN(C(=O)OCc2cc(Cl)ccc2Cl)CC1)C(=O)COc1c(F)c(F)cc(F)c1F [Example 96]	52.8 nM	
CC(C)[C@@H]1CC[C@@H](C)C[C@H]1OC(=O)N1CCC(C(=O)N[C@@H](CC(=O)O)C(=O)COc2c(F)c(F)cc(F)c2F)CC1 [Example 97]	112 nM	
O=C(O)C[C@H](NC(=O)C1CCN(C(=O)O[C@@H]2C[C@H]3CC[C@@H]2C3)CC1)C(=O)COc1c(F)c(F)cc(F)c1F [Example 100]	31.5 nM	
O=C(O)C[C@H](NC(=O)C1CCN(C(=O)C(=O)Nc2cc(Cl)ccc2Cl)CC1)C(=O)COc1c(F)c(F)cc(F)c1F [Example 101]	61.3 nM	
C[C@H](NC(=O)C(=O)Nc1ccccc1C(C)(C)C)C(=O)N[C@@H](CC(=O)O)C(=O)COc1c(F)c(F)cc(F)c1F [IDN-6556, reference compound]		half-life (in words) [1]: relatively short; in vivo exposure (in words) [1]: low; Apparent volume of distribution ([1]; intravenous injection 1 mpk): 0.82 L/kg; Area under the concentration-time curve ([1]; intravenous injection 1 mpk): 0.446 µM·h; Clearance rate ([1]; intravenous injection 1 mpk): 106 mL/min/kg; Half-life ([1]; intravenous injection 1 mpk): 15 min; Bioavailability ([1]; male, plasma, 10 mg/kg, oral administration 10 mpk, read-out: Bioavailability): ≤ 4%; Area under the concentration-time curve ([1]; oral administration 10 mpk): 0.197 µM·h; Bioavailability ([1]; oral administration 10 mpk): 4.4%; Peak concentration ([1]; oral administration 10 mpk): 227 nM; Time to peak concentration ([1]; oral administration 10 mpk): 0.25 h

Further lines, with some results ahead:

EC50 [2]	SMILES	also measured
19.8 nM	O=C(O)C[C@H](NC(=O)C1CCN(C(=O)Oc2cccc(Cl)c2Cl)CC1)C(=O)COc1c(F)c(F)cc(F)c1F [Example 103]	
29.8 nM	O=C(O)C[C@H](NC(=O)C1CCN(c2nc3cc(F)ccc3o2)CC1)C(=O)COc1c(F)c(F)cc(F)c1F [Example 104]	
27.6 nM	O=C(O)C[C@H](NC(=O)CC1CN(C(=O)C2CCCC2)C1)C(=O)COc1c(F)c(F)cc(F)c1F [Example 105]	
17.5 nM	O=C(O)C[C@H](NC(=O)C1CC2(CCN(C(=O)C3CCCC3)CC2)C1)C(=O)COc1c(F)c(F)cc(F)c1F [Example 106]	
192 nM	CC(C)(C)c1ccccc1NC(=O)C(=O)N1CCCO[C@H](C(=O)N[C@@H](CC(=O)O)C(=O)COc2c(F)c(F)cc(F)c2F)C1 [Example 109]	
383 nM	CC(C)(C)c1ccccc1NC(=O)C(=O)N1CCCO[C@@H](C(=O)N[C@@H](CC(=O)O)C(=O)COc2c(F)c(F)cc(F)c2F)C1 [Example 110]	
23 nM	CC(C)(C)c1ccccc1NC(=O)C(=O)N1CCCC[C@](C)(C(=O)N[C@@H](CC(=O)O)C(=O)COc2c(F)c(F)cc(F)c2F)C1 [Example 111]	
165 nM	CC(C)(C)c1ccccc1NC(=O)C(=O)N1CCCC[C@@](C)(C(=O)N[C@@H](CC(=O)O)C(=O)COc2c(F)c(F)cc(F)c2F)C1 [Example 112]	
46.2 nM	CC(C)(C)c1ccccc1NC(=O)C(=O)N1CCCCC[C@@H](C(=O)N[C@@H](CC(=O)O)C(=O)COc2c(F)c(F)cc(F)c2F)C1 [Example 113]	
66.3 nM	CC(C)(C)c1ccccc1NC(=O)C(=O)N1CCCCC[C@H](C(=O)N[C@@H](CC(=O)O)C(=O)COc2c(F)c(F)cc(F)c2F)C1 [Example 114]	
5.8 nM	O=C(O)C[C@H](NC(=O)[C@@H]1CCCCN(C(=O)c2noc3ccccc23)C1)C(=O)COc1c(F)c(F)cc(F)c1F [Example 122]	
38.9 nM	CC(C)(C)c1ccccc1NC(=O)C(=O)N1CCOC[C@@H](C(=O)N[C@@H](CC(=O)O)C(=O)COc2c(F)c(F)cc(F)c2F)C1 [Example 123]	
28.7 nM	CC(C)(C)c1ccccc1NC(=O)C(=O)N1CCOC[C@H](C(=O)N[C@@H](CC(=O)O)C(=O)COc2c(F)c(F)cc(F)c2F)C1 [Example 124]	
16.2 nM	O=C(O)C[C@H](NC(=O)[C@H]1COCCN(C(=O)c2cc(-c3ccccc3Cl)on2)C1)C(=O)COc1c(F)c(F)cc(F)c1F [Example 125]	
9.37 nM	O=C(O)C[C@H](NC(=O)[C@@H]1COCCN(C(=O)c2cc(-c3ccccc3Cl)on2)C1)C(=O)COc1c(F)c(F)cc(F)c1F [Example 126]	
7.14 nM	O=C(O)C[C@H](NC(=O)[C@H]1COCCN(C(=O)c2noc3ccccc23)C1)C(=O)COc1c(F)c(F)cc(F)c1F [Example 127]	
9.15 nM	O=C(O)C[C@H](NC(=O)[C@@H]1COCCN(C(=O)c2noc3ccccc23)C1)C(=O)COc1c(F)c(F)cc(F)c1F [Example 128]	
5.65 nM	O=C(O)C[C@H](NC(=O)[C@H]1COCCN(C(=O)C(=O)Nc2ccccc2Cl)C1)C(=O)COc1c(F)c(F)cc(F)c1F [Example 129]	
8.1 nM	O=C(O)C[C@H](NC(=O)[C@@H]1COCCN(C(=O)C(=O)Nc2ccccc2Cl)C1)C(=O)COc1c(F)c(F)cc(F)c1F [Example 130]	
